Experimental data reported in patent publication US10626081B2, “Farnesoid X receptor agonists and uses thereof” (Metacrine, Inc., priority 2015, dated 2020).

What was measured:
FXR [1] = target: T1, FXR (Homo sapiens, UniProt Q96RI1); test: In Vitro FXR Assay (PGL3): luciferase reporter in transfected CV-1 cells; assay type: cell-based; conditions: CV-1 cells transfected with hFXR, hRXR, PGL3-ECRE*6-luc; 18 h incubation; luminescence
T1 construct: expressed in transfected cells; host or cells: CV-1 cells
T1 sequence (Q96RI1 1-486): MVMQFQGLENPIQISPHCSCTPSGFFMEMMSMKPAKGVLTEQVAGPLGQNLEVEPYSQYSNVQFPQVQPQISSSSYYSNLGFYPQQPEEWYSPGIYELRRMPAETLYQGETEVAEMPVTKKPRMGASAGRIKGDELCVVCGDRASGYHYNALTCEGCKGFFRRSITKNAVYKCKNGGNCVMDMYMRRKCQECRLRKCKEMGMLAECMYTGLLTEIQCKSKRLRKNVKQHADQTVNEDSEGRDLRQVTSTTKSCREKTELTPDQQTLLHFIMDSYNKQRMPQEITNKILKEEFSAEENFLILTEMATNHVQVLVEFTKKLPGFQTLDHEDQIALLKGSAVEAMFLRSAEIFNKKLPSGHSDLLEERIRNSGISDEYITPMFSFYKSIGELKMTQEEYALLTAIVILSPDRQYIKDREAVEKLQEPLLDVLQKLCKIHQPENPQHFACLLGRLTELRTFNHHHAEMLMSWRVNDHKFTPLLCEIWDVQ
T1 sequence (P19793 1-462 partner): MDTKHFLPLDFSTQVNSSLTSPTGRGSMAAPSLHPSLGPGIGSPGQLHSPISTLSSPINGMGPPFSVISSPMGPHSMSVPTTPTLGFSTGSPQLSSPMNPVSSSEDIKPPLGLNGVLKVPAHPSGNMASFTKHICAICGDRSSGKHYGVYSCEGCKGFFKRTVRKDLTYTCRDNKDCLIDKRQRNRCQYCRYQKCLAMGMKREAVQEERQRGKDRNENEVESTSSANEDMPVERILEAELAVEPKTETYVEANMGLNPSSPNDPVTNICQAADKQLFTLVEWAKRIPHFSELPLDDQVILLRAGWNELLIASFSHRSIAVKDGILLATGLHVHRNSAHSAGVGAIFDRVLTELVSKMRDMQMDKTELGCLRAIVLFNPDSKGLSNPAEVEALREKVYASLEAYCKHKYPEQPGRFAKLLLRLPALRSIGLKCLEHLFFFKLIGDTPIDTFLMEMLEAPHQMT
How it was run: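 CV-1 cells in charcoal-stripped FBS were transiently co-transfected with full-length human FXR, RXR, an ECRE×6-luciferase reporter, β-gal and YFP plasmids. Transfected cells were reseeded onto half-log compound dilutions and incubated 18 h. Luciferase luminescence was read after lysis, and EC50 was determined.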

FXR [2] = target: T1, FXR; test: In Vitro FXR Assay (TK): TK-ECRE-luc reporter in transfected CV-1 cells; assay type: cell-based; conditions: CV-1 cells transfected with hFXR, hRXR, 18 h incubation, luminescence
How it was run: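 CV-1 cells in charcoal-stripped FBS medium were transiently cotransfected with hFXR, hRXR, TK-ECRE-luc and pCMX-YFP plasmids. After 18 h, compounds serially diluted in DMSO were added for 18 h at 37 °C, 5% CO2, then cells were lysed and luminescence read.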

Compound | Cmpd/Fex (ratio of the EC50 for the test compound relative to the EC50 of the Fexaramine control) (FXR [1]) | EC50 (FXR [2]) [µM]
COC(=O)/C=C/c1cccc(N(Cc2ccc(-c3ccc(OC)cc3F)cc2)C(=O)C2CCCCC2)c1 [compound 33, (E)-Methyl 3-(3-(N-((2′-fluoro-4′-methoxy-[1,1′-biphenyl]-4-yl)methyl)cyclohexanecarboxamido)phenyl)acrylate] | ++ (‘++’ means Cmpd/Fex > 10 & < 100) | 1 to 10
COC(=O)/C=C/c1cccc(N(Cc2ccc(-c3ccc(Cl)cc3)cc2)C(=O)C2CCCCC2)c1 [compound 34, (E)-Methyl 3-(3-(N-((4′-chloro-[1,1′-biphenyl]-4-yl)methyl)cyclohexanecarboxamido)phenyl)acrylate] | +++ (‘+++’ means Cmpd/Fex < 10) | 1 to 10
COC(=O)/C=C/c1cccc(N(Cc2ccc(-c3cccc(C(F)(F)F)c3)cc2)C(=O)C2CCCCC2)c1 [compound 35, (E)-Methyl 3-(3-(N-((3′-(trifluoromethyl)-[1,1′-biphenyl]-4-yl)methyl)cyclohexanecarboxamido)phenyl)acrylate] | ++ (‘++’ means Cmpd/Fex > 10 & < 100) | 1 to 10
COC(=O)/C=C/c1cccc(N(Cc2ccc(-c3ccc(C(F)(F)F)cc3)cc2)C(=O)C2CCCCC2)c1 [compound 36, (E)-Methyl 3-(3-(N-((4′-(trifluoromethyl)-[1,1′-biphenyl]-4-yl)methyl)cyclohexanecarboxamido)phenyl)acrylate] | ++ (‘++’ means Cmpd/Fex > 10 & < 100) | 1 to 10
COC(=O)/C=C/c1cccc(N(Cc2ccc(-c3cccc(N(C)C)c3)cc2)C(=O)C2CCCCC2)c1 [compound 37, (E)-Methyl 3-(3-(N-((3′-(dimethylamino)-[1,1′-biphenyl]-4-yl)methyl)cyclohexanecarboxamido)phenyl) acrylate] | ++ (‘++’ means Cmpd/Fex > 10 & < 100) | 1 to 10
COC(=O)/C=C/c1cccc(N(Cc2ccc(-c3ccc(N(C)C)nc3)cc2)C(=O)C2CCCCC2)c1 [compound 38, (E)-Methyl 3-(3-(N-(4-(6-(dimethylamino)pyridin-3-yl)benzyl)cyclohexanecarboxamido)phenyl) acrylate] | +++ (‘+++’ means Cmpd/Fex < 10) | ≤ 1
COC(=O)/C=C/c1cc(C)cc(N(Cc2ccc(-c3ccc(N(C)C)cc3)cc2)C(=O)C2CCCCC2)c1 [compound 39, (E)-Methyl 3-(3-(N-((4′-(dimethylamino)-[1,1′-biphenyl]-4-yl)methyl)cyclohexanecarboxamido)-5-methylphenyl)acrylate] | +++ (‘+++’ means Cmpd/Fex < 10) | 1 to 10
COC(=O)/C=C/c1cc(N(Cc2ccc(-c3ccc(N(C)C)cc3)cc2)C(=O)C2CCCCC2)ccc1C [compound 40, (E)-Methyl 3-(5-(N-((4′-(dimethylamino)-[1,1′-biphenyl]-4-yl)methyl)cyclohexanecarboxamido)-2-methylphenyl)acrylate] | + (‘+’ means Cmpd/Fex > 100) | > 10
COC(=O)/C=C/c1cccc(N(Cc2ccc(-c3ccc(N(C)C)cc3)cc2)C(=O)C2CCCCC2)c1C [compound 41, (E)-Methyl 3-(3-(N-((4′-(dimethylamino)-[1,1′-biphenyl]-4-yl)methyl)cyclohexanecarboxamido)-2-methylphenyl)acrylate] | ++ (‘++’ means Cmpd/Fex > 10 & < 100) | 1 to 10
COC(=O)/C=C/c1ccc(C)c(N(Cc2ccc(-c3ccc(N(C)C)cc3)cc2)C(=O)C2CCCCC2)c1 [compound 42, (E)-Methyl 3-(3-(N-((4′-(dimethylamino)-[1,1′-biphenyl]-4-yl)methyl)cyclohexanecarboxamido)-4-methylphenyl)acrylate] | +++ (‘+++’ means Cmpd/Fex < 10) | 1 to 10
COC(=O)CCc1cccc(N(Cc2ccc(-c3ccc(N(C)C)cc3)cc2)C(=O)C2CCCCC2)c1 [compound 43, Methyl 3-(3-(N-((4′-(dimethylamino)-[1,1′-biphenyl]-4-yl)methyl)cyclohexanecarboxamido)phenyl) propanoate] | ++ (‘++’ means Cmpd/Fex > 10 & < 100) | 1 to 10
COC/C=C/c1cccc(N(Cc2ccc(-c3ccc(N(C)C)cc3)cc2)C(=O)C2CCCCC2)c1 [compound 44, (E)-N-((4′-(Dimethylamino)-[1,1′-biphenyl]-4-yl)methyl)-N-(3-(3-methoxyprop-1-en-1-yl)phenyl)cyclohexanecarboxamide] | +++ (‘+++’ means Cmpd/Fex < 10) | 1 to 10
COC(=O)/C=C(\C)c1cccc(N(Cc2ccc(-c3ccc(N(C)C)cc3)cc2)C(=O)C2CCCCC2)c1 [compound 45, (E)-Methyl 3-(3-(N-((4′-(dimethylamino)-[1,1′-biphenyl]-4-yl)methyl)cyclohexanecarboxamido)phenyl)but-2-enoate] | +++ (‘+++’ means Cmpd/Fex < 10) | 1 to 10
COC(=O)/C=C/c1cccc(N(C(=O)C2CCCCC2)C(C)c2ccc(-c3ccc(N(C)C)cc3)cc2)c1 (stereo not shown) [compound 46, (E)-Methyl 3-(3-(N-(1-(4′-(dimethylamino)-[1,1′-biphenyl]-4-yl)ethyl)cyclohexanecarboxamido)phenyl) acrylate] | ++ (‘++’ means Cmpd/Fex > 10 & < 100) | 1 to 10
COC(=O)/C=C/c1cccc(N(Cc2ccc(-c3cccc(C(C)C)c3)cc2)C(=O)C2CCCCC2)c1 [compound 47, (E)-Methyl 3-(3-(N-((3′-isopropyl-[1,1′-biphenyl]-4-yl)methyl)cyclohexanecarboxamido)phenyl) acrylate] | + (‘+’ means Cmpd/Fex > 100) | > 10
COC(=O)/C=C/c1cccc(N(Cc2ccc(-c3ccc(N4CCCC4)cc3)cc2)C(=O)C2CCCCC2)c1 [compound 48, (E)-Methyl 3-(3-(N-((4′-(pyrrolidin-1-yl)-[1,1′-biphenyl]-4-yl)methyl)cyclohexanecarboxamido)phenyl) acrylate] | +++ (‘+++’ means Cmpd/Fex < 10) | 1 to 10
COC(=O)/C=C/c1cccc(N(Cc2ccc(-c3ccc4[nH]ncc4c3)cc2)C(=O)C2CCCCC2)c1 [compound 49, (E)-Methyl 3-(3-(N-(4-(1H-indazol-5-yl)benzyl)cyclohexanecarboxamido)phenyl) acrylate] | + (‘+’ means Cmpd/Fex > 100) | 1 to 10
COC(=O)/C=C/c1cccc(N(Cc2ccc(-c3ccc(N(C)C)cc3)c(F)c2)C(=O)C2CCCCC2)c1 [compound 50, (E)-methyl 3-(3-(N-((4′-(dimethylamino)-2-fluoro-[1,1′-biphenyl]-4-yl)methyl)cyclohexanecarboxamido)phenyl) acrylate] | +++ (‘+++’ means Cmpd/Fex < 10) | ≤ 1
COC(=O)/C=C/c1cccc(N(Cc2ccc(-c3ccc(N(C)C)cc3)cc2F)C(=O)C2CCCCC2)c1 [compound 51, (E)-methyl 3-(3-(N-((4′-(dimethylamino)-3-fluoro-[1,1′-biphenyl]-4-yl)methyl)cyclohexanecarboxamido)phenyl)acrylate] | +++ (‘+++’ means Cmpd/Fex < 10) | ≤ 1
COC(=O)/C=C/c1cccc(N(Cc2ccc(-c3ccc(OC)c(C)c3)cc2)C(=O)C2CCCCC2)c1 [compound 52, (E)-Methyl 3-(3-(N-((4′-methoxy-3′-methyl-[1,1′-biphenyl]-4-yl)methyl)cyclohexanecarboxamido)phenyl) acrylate] | +++ (‘+++’ means Cmpd/Fex < 10) | ≤ 1
